Assay results taken from patent US20060110790A1, “Expression system for large functional proteins” (priority 2002, published 2006).

Biological target: T1, N-half co-expressed with the K1978M C-half mutant of ABCR (Homo sapiens, UniProt P78363, K1978M)
T1 construct: The cDNAs coding for the N-half (amino acids 1-1325) and C-half (amino acids 1326-2273) of ABCR; made in house
T1 sequence (P78363 1-1325): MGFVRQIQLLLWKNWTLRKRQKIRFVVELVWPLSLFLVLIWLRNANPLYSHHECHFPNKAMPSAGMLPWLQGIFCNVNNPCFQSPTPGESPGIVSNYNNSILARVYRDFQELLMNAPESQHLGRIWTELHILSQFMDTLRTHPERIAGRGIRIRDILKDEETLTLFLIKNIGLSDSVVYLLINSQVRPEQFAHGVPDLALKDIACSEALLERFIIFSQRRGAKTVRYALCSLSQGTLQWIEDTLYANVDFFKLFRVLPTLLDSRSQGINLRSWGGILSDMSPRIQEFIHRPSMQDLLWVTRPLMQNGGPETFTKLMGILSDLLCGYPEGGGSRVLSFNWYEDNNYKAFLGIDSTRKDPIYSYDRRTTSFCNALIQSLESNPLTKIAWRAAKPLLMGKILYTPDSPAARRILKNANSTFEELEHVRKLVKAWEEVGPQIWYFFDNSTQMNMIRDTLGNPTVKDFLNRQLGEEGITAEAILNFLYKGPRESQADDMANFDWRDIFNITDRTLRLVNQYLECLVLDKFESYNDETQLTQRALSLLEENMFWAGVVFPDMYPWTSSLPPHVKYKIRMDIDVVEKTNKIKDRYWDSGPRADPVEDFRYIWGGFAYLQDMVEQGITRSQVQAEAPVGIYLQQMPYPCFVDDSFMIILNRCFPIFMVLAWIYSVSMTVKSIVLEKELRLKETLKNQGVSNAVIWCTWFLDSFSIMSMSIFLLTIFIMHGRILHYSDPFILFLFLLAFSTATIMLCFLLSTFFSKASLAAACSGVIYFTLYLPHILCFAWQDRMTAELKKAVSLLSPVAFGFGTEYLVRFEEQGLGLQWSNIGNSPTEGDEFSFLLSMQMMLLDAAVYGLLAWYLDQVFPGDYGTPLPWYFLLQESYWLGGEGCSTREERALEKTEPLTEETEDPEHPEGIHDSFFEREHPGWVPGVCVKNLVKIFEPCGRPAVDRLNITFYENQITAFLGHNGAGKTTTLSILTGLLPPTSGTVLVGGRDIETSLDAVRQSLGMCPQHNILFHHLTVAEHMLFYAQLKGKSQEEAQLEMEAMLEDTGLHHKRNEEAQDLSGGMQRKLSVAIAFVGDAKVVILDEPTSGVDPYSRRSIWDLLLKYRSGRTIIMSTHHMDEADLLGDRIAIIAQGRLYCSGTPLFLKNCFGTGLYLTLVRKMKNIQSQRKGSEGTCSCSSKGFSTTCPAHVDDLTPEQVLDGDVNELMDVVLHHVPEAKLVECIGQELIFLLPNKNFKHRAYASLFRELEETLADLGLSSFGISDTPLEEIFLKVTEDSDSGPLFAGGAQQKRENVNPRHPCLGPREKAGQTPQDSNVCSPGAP
T1 sequence (P78363 1326-2273 K1978M): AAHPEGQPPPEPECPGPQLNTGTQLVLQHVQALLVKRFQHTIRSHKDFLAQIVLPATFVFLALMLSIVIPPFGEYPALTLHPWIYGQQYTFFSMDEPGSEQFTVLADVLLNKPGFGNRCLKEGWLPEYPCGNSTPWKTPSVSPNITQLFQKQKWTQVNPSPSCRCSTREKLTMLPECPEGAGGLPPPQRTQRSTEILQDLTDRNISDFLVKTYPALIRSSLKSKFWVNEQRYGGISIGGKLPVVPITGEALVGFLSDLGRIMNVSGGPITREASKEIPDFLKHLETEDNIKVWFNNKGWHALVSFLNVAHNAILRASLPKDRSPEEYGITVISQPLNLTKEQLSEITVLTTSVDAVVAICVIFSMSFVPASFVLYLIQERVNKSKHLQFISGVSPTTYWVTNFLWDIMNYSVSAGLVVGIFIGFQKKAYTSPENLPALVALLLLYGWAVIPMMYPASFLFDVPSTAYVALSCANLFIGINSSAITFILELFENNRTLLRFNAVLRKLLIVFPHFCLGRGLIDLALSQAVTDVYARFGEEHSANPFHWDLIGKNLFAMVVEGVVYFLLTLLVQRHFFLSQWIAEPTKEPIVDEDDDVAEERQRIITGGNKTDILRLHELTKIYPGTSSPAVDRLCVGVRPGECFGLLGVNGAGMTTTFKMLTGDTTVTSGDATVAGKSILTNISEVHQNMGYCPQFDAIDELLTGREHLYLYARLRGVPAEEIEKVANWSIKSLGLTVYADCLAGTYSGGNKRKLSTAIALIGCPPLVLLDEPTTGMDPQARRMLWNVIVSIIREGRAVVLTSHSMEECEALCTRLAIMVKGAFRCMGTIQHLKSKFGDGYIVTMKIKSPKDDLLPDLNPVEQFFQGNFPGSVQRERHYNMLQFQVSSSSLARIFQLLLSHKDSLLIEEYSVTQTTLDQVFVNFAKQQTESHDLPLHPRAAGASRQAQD
Experiment: ATPase activity of Walker A lysine-to-methionine mutants
Assay type: biochemical
Settings: 50 μM all-trans retinal
Protocol: FIG. 4. Lysine to methionine Walker A mutations in ABCR abolish ATP hydrolysis but not ATP binding. A. ATPase activity was measured in the absence (white bars) or presence of 50 μM all-trans retinal (grey bars). WT, wild-type; K969M in NBD1; K1978M in NBD2; MM, K969M/K1978M double mutant; NCM, N-half co-expressed with C-half containing a K1978M mutation. B. ATP photoaffinity labeling was carried out by irradiating membranes from COS-1 cells expressing wild-type (WT), K969M, K1978M, or K969M/K1978M double mutant (MM) with 3 μM 8-azido-[α-^32P]ATp. The labeled protein was isolated with Rim3F4-Sepharose and separated on SDS gels. Left panel: gel stained with Coomassie blue. Right panel: corresponding ^32P labeling obtained with a phosphorimager. All mutant proteins were labeled with 8-azido-[α-^32P]ATP, but the double mutant bound less nucleotide.
ATPase activity was measured as described previously (Ahn, J., Wong, J. T., and Molday, R. S. (2000) J Biol Chem 275(27), 20399-405) using 50 μM [α^32P]ATP and thin layer chromatography. The all-trans retinal concentration was determined spectrophotometrically (λ383 nm=42.88 mM^−1 cm^−1). Protein concentration was estimated from the eluate before reconstitution by laser densitometry of Coomassie blue stained gels using bovine serum albumin as a standard. […]

retinal-stimulated ATPase activity: abolished
SMILES: CC1=C(/C=C/C(C)=C/C=C/C(C)=C/C=O)C(C)(C)CCC1 [all-trans retinal]
